Assay results from ChEMBL document CHEMBL5303766, “Data for DCP probe FHT-2344” (2022).

Tests used:
[1] = biological target: Death-associated protein kinase 1 (Homo sapiens) (UniProt P53355); test: DAPK1 SGC Tm panel (DSF); conditions: for ΔTm: Compound concentration 10.0 uM
[2] = biological target: Ephrin type-A receptor 2 (Homo sapiens) (UniProt P29317); test: EPHA2 SGC Tm panel (DSF); conditions: for ΔTm: Compound concentration 10.0 uM
[3] = biological target: Mitogen-activated protein kinase 1 (Homo sapiens) (UniProt P28482); test: MAPK1 SGC Tm panel (DSF); conditions: for ΔTm: Compound concentration 10.0 uM
Sequence of Mitogen-activated protein kinase 1 (Homo sapiens) (P28482 whole entry): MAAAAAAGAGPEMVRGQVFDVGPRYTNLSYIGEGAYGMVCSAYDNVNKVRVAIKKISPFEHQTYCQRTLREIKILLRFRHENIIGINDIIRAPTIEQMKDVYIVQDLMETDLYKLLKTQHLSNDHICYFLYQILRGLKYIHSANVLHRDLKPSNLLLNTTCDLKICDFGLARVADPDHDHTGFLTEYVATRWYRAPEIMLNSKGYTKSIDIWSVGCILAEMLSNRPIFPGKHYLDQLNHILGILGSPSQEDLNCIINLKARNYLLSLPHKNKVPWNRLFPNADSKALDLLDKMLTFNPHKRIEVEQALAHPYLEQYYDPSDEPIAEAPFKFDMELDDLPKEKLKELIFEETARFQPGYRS

[4] = biological target: Glycogen synthase kinase-3 beta (Homo sapiens) (UniProt P49841); test: GSK3B SGC Tm panel (DSF); conditions: for ΔTm: Compound concentration 10.0 uM
Sequence of Glycogen synthase kinase-3 beta (Homo sapiens) (P49841 whole entry, looked up): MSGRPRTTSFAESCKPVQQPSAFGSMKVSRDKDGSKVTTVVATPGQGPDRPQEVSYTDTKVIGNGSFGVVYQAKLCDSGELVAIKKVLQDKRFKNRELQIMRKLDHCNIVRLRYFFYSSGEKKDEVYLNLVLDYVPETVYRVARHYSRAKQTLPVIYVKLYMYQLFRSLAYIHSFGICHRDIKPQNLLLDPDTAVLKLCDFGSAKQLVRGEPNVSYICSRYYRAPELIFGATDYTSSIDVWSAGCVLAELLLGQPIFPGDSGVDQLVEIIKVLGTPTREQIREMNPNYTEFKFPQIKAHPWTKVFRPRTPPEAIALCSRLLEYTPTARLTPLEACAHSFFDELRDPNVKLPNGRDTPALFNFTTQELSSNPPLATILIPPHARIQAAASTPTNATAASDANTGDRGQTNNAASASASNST

[5] = biological target: T1, Dual specificity mitogen-activated protein kinase kinase 6 (Homo sapiens) (UniProt P52564); test: MAP2K6 SGC Tm panel (DSF); conditions: for ΔTm: Compound concentration 10.0 uM
T1 sequence (whole entry): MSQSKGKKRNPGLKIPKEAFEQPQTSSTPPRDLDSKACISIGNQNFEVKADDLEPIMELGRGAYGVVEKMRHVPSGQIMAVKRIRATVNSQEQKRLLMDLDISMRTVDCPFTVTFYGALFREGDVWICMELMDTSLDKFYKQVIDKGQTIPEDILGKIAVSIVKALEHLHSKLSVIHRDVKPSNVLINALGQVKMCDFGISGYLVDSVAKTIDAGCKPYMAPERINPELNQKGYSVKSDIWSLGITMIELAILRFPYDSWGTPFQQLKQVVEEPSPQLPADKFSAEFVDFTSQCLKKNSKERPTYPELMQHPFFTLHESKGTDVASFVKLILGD

[6] = biological target: Mitogen-activated protein kinase 14 (Homo sapiens) (UniProt Q16539); test: MAPK14 SGC Tm panel (DSF); conditions: for ΔTm: Compound concentration 10.0 uM
Sequence of Mitogen-activated protein kinase 14 (Homo sapiens) (Q16539 whole entry): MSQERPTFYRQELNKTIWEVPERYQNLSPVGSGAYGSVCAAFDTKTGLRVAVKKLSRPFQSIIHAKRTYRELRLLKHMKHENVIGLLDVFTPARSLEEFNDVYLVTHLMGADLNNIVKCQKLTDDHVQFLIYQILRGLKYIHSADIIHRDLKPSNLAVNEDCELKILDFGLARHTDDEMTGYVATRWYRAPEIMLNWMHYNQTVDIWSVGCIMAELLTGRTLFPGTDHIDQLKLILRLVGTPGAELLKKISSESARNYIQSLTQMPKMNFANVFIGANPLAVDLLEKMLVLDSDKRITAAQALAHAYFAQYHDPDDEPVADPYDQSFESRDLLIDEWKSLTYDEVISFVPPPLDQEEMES

[7] = biological target: Serine/threonine-protein kinase pim-3 (Homo sapiens) (UniProt Q86V86); test: PIM3 SGC Tm panel (DSF); conditions: for ΔTm: Compound concentration 10.0 uM
[8] = biological target: Serine/threonine-protein kinase pim-1 (Homo sapiens) (UniProt P11309); test: PIM1 SGC Tm panel (DSF); conditions: for ΔTm: Compound concentration 10.0 uM
Sequence of Serine/threonine-protein kinase pim-1 (Homo sapiens) (P11309 whole entry, looked up): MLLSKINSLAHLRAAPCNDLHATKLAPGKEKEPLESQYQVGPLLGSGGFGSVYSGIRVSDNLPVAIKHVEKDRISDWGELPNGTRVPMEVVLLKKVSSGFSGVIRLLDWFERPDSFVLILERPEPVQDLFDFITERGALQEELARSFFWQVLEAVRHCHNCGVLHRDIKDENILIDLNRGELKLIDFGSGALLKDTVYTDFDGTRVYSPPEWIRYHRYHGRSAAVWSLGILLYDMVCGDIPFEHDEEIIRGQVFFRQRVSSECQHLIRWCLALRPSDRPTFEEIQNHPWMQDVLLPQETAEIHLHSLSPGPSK

[9] = biological target: Ribosomal protein S6 kinase alpha-5 (Homo sapiens) (UniProt O75582); test: RPS6KA5 SGC Tm panel (DSF); conditions: for ΔTm: Compound concentration 10.0 uM
Sequence of Ribosomal protein S6 kinase alpha-5 (Homo sapiens) (O75582 whole entry, looked up): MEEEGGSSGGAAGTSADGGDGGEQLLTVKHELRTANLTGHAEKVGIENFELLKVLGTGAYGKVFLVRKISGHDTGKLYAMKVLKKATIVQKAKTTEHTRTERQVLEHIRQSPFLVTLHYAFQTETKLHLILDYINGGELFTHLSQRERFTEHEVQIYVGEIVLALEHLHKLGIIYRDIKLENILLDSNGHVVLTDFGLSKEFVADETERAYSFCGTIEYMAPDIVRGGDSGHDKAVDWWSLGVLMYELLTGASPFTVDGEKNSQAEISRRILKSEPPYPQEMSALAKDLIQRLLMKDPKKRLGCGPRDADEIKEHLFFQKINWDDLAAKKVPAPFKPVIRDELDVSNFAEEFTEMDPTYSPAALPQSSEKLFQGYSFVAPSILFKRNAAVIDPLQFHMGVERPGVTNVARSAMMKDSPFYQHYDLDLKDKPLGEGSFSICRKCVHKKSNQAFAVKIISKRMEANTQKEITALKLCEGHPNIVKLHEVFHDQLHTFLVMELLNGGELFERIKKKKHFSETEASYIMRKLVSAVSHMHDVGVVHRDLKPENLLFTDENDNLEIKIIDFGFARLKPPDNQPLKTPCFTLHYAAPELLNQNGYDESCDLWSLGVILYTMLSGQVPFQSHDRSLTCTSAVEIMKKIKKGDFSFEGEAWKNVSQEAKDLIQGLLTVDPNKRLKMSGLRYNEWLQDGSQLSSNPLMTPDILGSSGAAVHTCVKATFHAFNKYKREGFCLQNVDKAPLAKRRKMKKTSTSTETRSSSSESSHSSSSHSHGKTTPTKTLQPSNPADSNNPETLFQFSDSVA

[10] = biological target: STE20/SPS1-related proline-alanine-rich protein kinase (Homo sapiens) (UniProt Q9UEW8); test: STK39 SGC Tm panel (DSF); conditions: for ΔTm: Compound concentration 10.0 uM
[11] = biological target: T2, Serine/threonine-protein kinase VRK1 (Homo sapiens) (UniProt Q99986); test: VRK1 SGC Tm panel (DSF); conditions: for ΔTm: Compound concentration 10.0 uM
T2 sequence (whole entry): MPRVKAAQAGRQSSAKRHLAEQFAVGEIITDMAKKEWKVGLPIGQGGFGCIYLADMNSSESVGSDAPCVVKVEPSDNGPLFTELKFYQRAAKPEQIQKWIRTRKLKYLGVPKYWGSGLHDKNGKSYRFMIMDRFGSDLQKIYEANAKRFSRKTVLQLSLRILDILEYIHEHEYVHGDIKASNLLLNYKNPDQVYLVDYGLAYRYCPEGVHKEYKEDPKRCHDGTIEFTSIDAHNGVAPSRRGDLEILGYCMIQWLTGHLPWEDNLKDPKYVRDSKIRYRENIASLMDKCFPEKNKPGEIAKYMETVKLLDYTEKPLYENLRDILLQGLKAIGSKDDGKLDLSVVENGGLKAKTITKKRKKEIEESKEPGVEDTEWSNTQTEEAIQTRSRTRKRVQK

[12] = biological target: Serine/threonine-protein kinase WNK1 (Homo sapiens) (UniProt Q9H4A3); test: WNK1 SGC Tm panel (DSF); conditions: for ΔTm: Compound concentration 10.0 uM
[13] = biological target: Aurora kinase B (Homo sapiens) (UniProt Q96GD4); test: AURKB SGC Tm panel (DSF); conditions: for ΔTm: Compound concentration 10.0 uM
Sequence of Aurora kinase B (Homo sapiens) (Q96GD4 whole entry): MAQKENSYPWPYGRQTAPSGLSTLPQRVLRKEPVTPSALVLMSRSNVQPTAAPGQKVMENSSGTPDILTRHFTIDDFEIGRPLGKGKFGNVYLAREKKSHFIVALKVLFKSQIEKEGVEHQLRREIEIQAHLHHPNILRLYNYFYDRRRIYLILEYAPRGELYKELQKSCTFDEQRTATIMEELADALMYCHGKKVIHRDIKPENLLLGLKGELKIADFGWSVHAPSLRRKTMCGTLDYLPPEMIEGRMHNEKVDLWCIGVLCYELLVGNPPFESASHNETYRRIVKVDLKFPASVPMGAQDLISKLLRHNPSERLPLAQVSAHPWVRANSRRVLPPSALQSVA

[14] = biological target: T3, Mitogen-activated protein kinase 15 (Homo sapiens) (UniProt Q8TD08); test: MAPK15 SGC Tm panel (DSF); conditions: for ΔTm: Compound concentration 10.0 uM
T3 sequence (whole entry): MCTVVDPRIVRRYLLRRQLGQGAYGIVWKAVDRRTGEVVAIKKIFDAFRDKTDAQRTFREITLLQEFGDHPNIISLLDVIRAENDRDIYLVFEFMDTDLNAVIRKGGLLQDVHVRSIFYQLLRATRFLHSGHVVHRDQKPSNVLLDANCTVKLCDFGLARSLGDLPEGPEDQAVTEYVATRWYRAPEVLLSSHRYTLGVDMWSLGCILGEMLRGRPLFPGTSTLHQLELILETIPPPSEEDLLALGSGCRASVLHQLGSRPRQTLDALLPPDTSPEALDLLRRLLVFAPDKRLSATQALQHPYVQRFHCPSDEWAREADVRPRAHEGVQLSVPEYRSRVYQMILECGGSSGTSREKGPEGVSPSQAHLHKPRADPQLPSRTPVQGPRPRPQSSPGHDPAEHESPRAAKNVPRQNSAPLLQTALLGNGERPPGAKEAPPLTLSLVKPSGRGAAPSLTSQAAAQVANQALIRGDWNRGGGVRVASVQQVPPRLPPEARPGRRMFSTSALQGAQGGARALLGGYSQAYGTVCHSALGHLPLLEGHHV

[15] = biological target: MAP kinase-activated protein kinase 2 (Homo sapiens) (UniProt P49137); test: MAPKAPK2 SGC Tm panel (DSF); conditions: for ΔTm: Compound concentration 10.0 uM
Sequence of MAP kinase-activated protein kinase 2 (Homo sapiens) (P49137 whole entry, looked up): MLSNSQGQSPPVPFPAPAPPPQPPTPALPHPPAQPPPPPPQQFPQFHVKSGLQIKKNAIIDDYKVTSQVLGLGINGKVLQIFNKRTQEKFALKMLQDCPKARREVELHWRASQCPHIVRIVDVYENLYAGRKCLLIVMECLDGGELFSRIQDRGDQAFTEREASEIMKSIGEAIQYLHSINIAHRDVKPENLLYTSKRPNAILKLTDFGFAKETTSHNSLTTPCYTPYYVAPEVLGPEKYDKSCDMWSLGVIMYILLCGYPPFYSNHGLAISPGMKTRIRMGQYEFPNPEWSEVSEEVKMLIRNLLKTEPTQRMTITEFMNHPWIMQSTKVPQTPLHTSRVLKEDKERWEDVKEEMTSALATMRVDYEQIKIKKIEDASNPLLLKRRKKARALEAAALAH

[16] = biological target: 5-hydroxytryptamine receptor 3A (Homo sapiens) (UniProt P46098); conditions: Compound concentration 10.0 uM
[17] = biological target: 5-hydroxytryptamine receptor 7 (Homo sapiens) (UniProt P34969); conditions: Compound concentration 10.0 uM
[18] = biological target: D(1A) dopamine receptor (Homo sapiens) (UniProt P21728); conditions: Compound concentration 10.0 uM
[19] = biological target: Delta-type opioid receptor (Homo sapiens) (UniProt P41143); conditions: Compound concentration 10.0 uM
[20] = biological target: Alpha-1A adrenergic receptor (Homo sapiens) (UniProt P35348); conditions: Compound concentration 10.0 uM
[21] = biological target: Beta-1 adrenergic receptor (Homo sapiens) (UniProt P08588); conditions: Compound concentration 10.0 uM

Sequence of Death-associated protein kinase 1 (Homo sapiens) (P53355 whole entry, looked up): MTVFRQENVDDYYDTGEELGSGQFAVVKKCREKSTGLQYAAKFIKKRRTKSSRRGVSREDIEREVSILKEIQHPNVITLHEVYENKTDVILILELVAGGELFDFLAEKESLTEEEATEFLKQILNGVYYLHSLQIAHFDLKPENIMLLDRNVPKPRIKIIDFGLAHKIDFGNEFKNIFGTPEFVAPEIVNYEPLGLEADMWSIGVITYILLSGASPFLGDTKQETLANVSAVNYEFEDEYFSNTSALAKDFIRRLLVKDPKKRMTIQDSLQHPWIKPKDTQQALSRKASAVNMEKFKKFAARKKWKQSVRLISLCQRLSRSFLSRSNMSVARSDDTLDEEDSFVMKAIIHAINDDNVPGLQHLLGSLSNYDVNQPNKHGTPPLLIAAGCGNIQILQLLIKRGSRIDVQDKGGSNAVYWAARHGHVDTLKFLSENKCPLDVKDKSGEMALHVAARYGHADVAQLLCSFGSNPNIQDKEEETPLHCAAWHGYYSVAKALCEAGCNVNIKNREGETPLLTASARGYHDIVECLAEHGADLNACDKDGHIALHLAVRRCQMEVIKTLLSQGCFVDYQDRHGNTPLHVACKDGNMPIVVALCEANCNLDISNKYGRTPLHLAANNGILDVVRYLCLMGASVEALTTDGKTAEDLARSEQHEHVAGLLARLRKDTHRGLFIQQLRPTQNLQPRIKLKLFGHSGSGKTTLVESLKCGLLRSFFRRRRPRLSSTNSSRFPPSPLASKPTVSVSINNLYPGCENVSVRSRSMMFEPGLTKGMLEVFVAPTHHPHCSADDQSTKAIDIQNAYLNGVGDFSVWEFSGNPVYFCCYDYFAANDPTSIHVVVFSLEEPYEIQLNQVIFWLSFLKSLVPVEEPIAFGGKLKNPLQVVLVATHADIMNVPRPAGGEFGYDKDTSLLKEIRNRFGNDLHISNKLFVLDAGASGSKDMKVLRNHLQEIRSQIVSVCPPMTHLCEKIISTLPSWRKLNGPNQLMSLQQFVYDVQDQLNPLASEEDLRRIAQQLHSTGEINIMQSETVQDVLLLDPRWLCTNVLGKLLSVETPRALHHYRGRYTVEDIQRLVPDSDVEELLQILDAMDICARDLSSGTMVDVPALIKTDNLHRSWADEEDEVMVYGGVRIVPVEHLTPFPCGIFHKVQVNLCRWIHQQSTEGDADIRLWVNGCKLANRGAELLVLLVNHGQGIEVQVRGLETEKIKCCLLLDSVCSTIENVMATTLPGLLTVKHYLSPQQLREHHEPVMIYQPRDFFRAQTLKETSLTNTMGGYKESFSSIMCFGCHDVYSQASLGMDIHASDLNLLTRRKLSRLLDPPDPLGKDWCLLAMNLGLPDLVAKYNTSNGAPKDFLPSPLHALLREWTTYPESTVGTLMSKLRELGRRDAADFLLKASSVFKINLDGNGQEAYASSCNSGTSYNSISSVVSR

| delta Tm Staurosporine positive control [2] | ΔTm [2] | delta Tm Staurosporine positive control [3] | ΔTm [3] | delta Tm Staurosporine positive control [4] | ΔTm [4] | delta Tm Staurosporine positive control [5] | ΔTm [5] | delta Tm Staurosporine positive control [6] | ΔTm [6] | delta Tm Staurosporine positive control [7] | ΔTm [7] | delta Tm Staurosporine positive control [8] | ΔTm [8] | delta Tm Staurosporine positive control [9] | ΔTm [9] | delta Tm Staurosporine positive control [10] | ΔTm [10] | Structure (SMILES) | delta Tm Staurosporine positive control [1] | ΔTm [1] | also measured |
| --- | --- | --- | --- | --- | --- | --- | --- | --- | --- | --- | --- | --- | --- | --- | --- | --- | --- | --- | --- | --- | --- |
| 7.67 | 0.202 | 1.98 | 0.812 | 12.1 | 0.242 | 12.1 | 1.51 | 1.14 | -0.0969 | 17.6 | 0.116 | 11.9 | -0.353 | 13.1 | 1.16 | 8.57 | 0.181 | COC[C@H](NC(=O)c1ccn(S(C)(=O)=O)c1)C(=O)Nc1nc(-c2cccc(-c3ccn(C)n3)c2)cs1 | 9.19 | -0.136 | delta Tm Staurosporine positive control [11]: 3.19; ΔTm [11]: 0.303; delta Tm Staurosporine positive control [12]: 0.638; ΔTm [12]: 0.232; delta Tm Staurosporine positive control [13]: 13.6; ΔTm [13]: 1.29; delta Tm Staurosporine positive control [14]: 15; ΔTm [14]: 0.94; delta Tm Staurosporine positive control [15]: 3.41; ΔTm [15]: 0.842; inhibition [16]: 5.62%; inhibition [17]: 3.33%; inhibition [18]: 30.9%; inhibition [19]: 9.17%; inhibition [20]: 12.3%; inhibition [21]: 1.4% |
| 7.67 | 0.2 | 1.98 | 0.442 | 12.1 | 0.703 | 12.1 | 1.65 | 1.14 | -0.0712 | 17.6 | 0.698 | 11.9 | -0.391 | 13.1 | -0.0945 | 8.57 | 0.258 | C[C@H](NC(=O)c1cn(C2(C#N)CC2)cn1)C(=O)Nc1nc(-c2cccc(-c3ccn(C)n3)c2)cs1 | 9.19 | 0.0306 | delta Tm Staurosporine positive control [11]: 3.19; ΔTm [11]: 0.296; delta Tm Staurosporine positive control [12]: 0.638; ΔTm [12]: 0.361; delta Tm Staurosporine positive control [13]: 13.6; ΔTm [13]: 0.802; delta Tm Staurosporine positive control [14]: 15; ΔTm [14]: 1.05; delta Tm Staurosporine positive control [15]: 3.41; ΔTm [15]: -9.54; inhibition [16]: 3.44%; inhibition [17]: 23%; inhibition [18]: 38.9%; inhibition [19]: 12.4%; inhibition [20]: 15.2%; inhibition [21]: 3.85% |
